{
  "source": "paper PMC7576618",
  "about": "(British Journal of Clinical Pharmacology, 2020)",
  "key": {"[1]": {"experiment": "MAD study: plasma pharmacokinetics after multiple oral dose titration of TS-134", "type": "in vivo, human", "settings": "for AUC0‐tau, mean (CV[%]) / Cmax, mean (CV[%]) / t1/2, mean (CV[%]) / tmax, median: plasma, MAD Day 14, fed"}, "[2]": {"settings": "compared with monkeys; cited from earlier work"}, "[3]": {"experiment": "SAD study: plasma pharmacokinetics after single oral TS-134", "type": "in vivo, human", "settings": "for AUC0‐inf, mean (CV[%]) / Cmax, mean (CV[%]) / t1/2, mean (CV[%]) / tmax, median: plasma"}, "[4]": {"settings": "SAD Parts A and C, 5 mg fasted (n = 6)"}, "[5]": {"settings": "SAD Parts A and C, 10 mg fasted (n = 4)"}, "[6]": {"settings": "SAD Parts A and C, 10 mg fed (n = 3)"}, "[7]": {"settings": "SAD Parts A and C, 20 mg fasted (n = 3)"}, "[8]": {"settings": "SAD Parts A and C, 20 mg fed (n = 3)"}},
  "note": "Marks after values point to notes of the source that are not given here.",
  "data": [
    {"smiles": "CC(C)[C@@H]1CC[C@@H](C)C[C@H]1OC(=O)O[C@@H](C)OC(=O)[C@H]1[C@@H]2C[C@H](F)[C@@](N)(C(=O)O)[C@@H]21", "note": "[MGS0274]", "values": [
      {"measurement": "dose proportionality of steady‐state plasma Cmax and AUC", "setting": "[1]; MAD, 5–80 mg", "result": "dose proportional increases"},
      {"measurement": "AUC0‐tau, mean (CV[%])", "setting": "[1]; 5 mg (n = 8)", "result": "14.90 (37.92) h•ng mL^−1"},
      {"measurement": "Cmax, mean (CV[%])", "setting": "[1]; 5 mg (n = 8)", "result": "6.090 (79.22) ng mL^−1"},
      {"measurement": "t1/2, mean (CV[%])", "setting": "[1]; 5 mg (n = 8)", "result": "1.247 (40.98) h"},
      {"measurement": "tmax, median", "setting": "[1]; 5 mg (n = 8)", "result": 60, "unit": "min"},
      {"measurement": "AUC0‐tau, mean (CV[%])", "setting": "[1]; 10 mg (n = 8)", "result": "29.40 (23.81) h•ng mL^−1"},
      {"measurement": "Cmax, mean (CV[%])", "setting": "[1]; 10 mg (n = 8)", "result": "13.91 (51.77) ng mL^−1"},
      {"measurement": "t1/2, mean (CV[%])", "setting": "[1]; 10 mg (n = 8)", "result": "1.212 (35.09) h"},
      {"measurement": "tmax, median", "setting": "[1]; 10 mg (n = 8)", "result": 30, "unit": "min"},
      {"measurement": "AUC0‐tau, mean (CV[%])", "setting": "[1]; 20 mg (n = 8)", "result": "56.36 (48.86) h•ng mL^−1"},
      {"measurement": "Cmax, mean (CV[%])", "setting": "[1]; 20 mg (n = 8)", "result": "26.92 (66.42) ng mL^−1"},
      {"measurement": "t1/2, mean (CV[%])", "setting": "[1]; 20 mg (n = 8)", "result": "1.567 (39.16) h"},
      {"measurement": "tmax, median", "setting": "[1]; 20 mg (n = 8)", "result": 30, "unit": "min"},
      {"measurement": "AUC0‐tau, mean (CV[%])", "setting": "[1]; 40 mg (n = 8)", "result": "122.0 (29.47) h•ng mL^−1"},
      {"measurement": "Cmax, mean (CV[%])", "setting": "[1]; 40 mg (n = 8)", "result": "40.38 (29.69) ng mL^−1"},
      {"measurement": "t1/2, mean (CV[%])", "setting": "[1]; 40 mg (n = 8)", "result": "4.711 (52.68) h"},
      {"measurement": "tmax, median", "setting": "[1]; 40 mg (n = 8)", "result": 60, "unit": "min"},
      {"measurement": "AUC0‐tau, mean (CV[%])", "setting": "[1]; 60 mg (n = 8)", "result": "170.0 (23.85) h•ng mL^−1"},
      {"measurement": "Cmax, mean (CV[%])", "setting": "[1]; 60 mg (n = 8)", "result": "95.14 (42.43) ng mL^−1"},
      {"measurement": "t1/2, mean (CV[%])", "setting": "[1]; 60 mg (n = 8)", "result": "7.549 (93.72) h"},
      {"measurement": "tmax, median", "setting": "[1]; 60 mg (n = 8)", "result": 60, "unit": "min"},
      {"measurement": "AUC0‐tau, mean (CV[%])", "setting": "[1]; 80 mg Cohort 5 (n = 7)", "result": "142.0 (19.40) h•ng mL^−1"},
      {"measurement": "Cmax, mean (CV[%])", "setting": "[1]; 80 mg Cohort 5 (n = 7)", "result": "85.27 (43.68) ng mL^−1"},
      {"measurement": "t1/2, mean (CV[%])", "setting": "[1]; 80 mg Cohort 5 (n = 7)", "result": "10.52 (57.99) h"},
      {"measurement": "tmax, median", "setting": "[1]; 80 mg Cohort 5 (n = 7)", "result": 60, "unit": "min"},
      {"measurement": "AUC0‐tau, mean (CV[%])", "setting": "[1]; 80 mg Cohort 6 (n = 6)", "result": "203.9 (24.30) h•ng mL^−1"},
      {"measurement": "Cmax, mean (CV[%])", "setting": "[1]; 80 mg Cohort 6 (n = 6)", "result": "98.55 (37.09) ng mL^−1"},
      {"measurement": "t1/2, mean (CV[%])", "setting": "[1]; 80 mg Cohort 6 (n = 6)", "result": "6.810 (23.98) h"},
      {"measurement": "tmax, median", "setting": "[1]; 80 mg Cohort 6 (n = 6)", "result": 30, "unit": "min"},
      {"measurement": "hydrolytic activity against MGS0274 in the human liver S9 fraction", "setting": "[2]", "result": "comparable to that in monkeys"},
      {"measurement": "reduction of plasma AUC in the fed group (food effect)", "setting": "[3]; SAD, 10 and 20 mg TS‐134", "result": "almost no food effect"},
      {"measurement": "reduction of plasma Cmax in the fed group (food effect)", "setting": "[3]; SAD, 10 and 20 mg TS‐134", "result": "up to 45%"},
      {"measurement": "plasma AUC of MGS0274 as share of the AUC of MGS0008", "setting": "[3]; molar ratio, single and multiple oral administration, all treatment groups", "result": "approximately 3%"},
      {"measurement": "AUC0‐inf, mean (CV[%])", "setting": "[3]; SAD Part B, 10 mg fed (n = 6)", "result": "36.47 ^e (61.58) h•ng mL^−1"},
      {"measurement": "Cmax, mean (CV[%])", "setting": "[3]; SAD Part B, 10 mg fed (n = 7)", "result": "13.00 (82.69) ng mL^−1"},
      {"measurement": "t1/2, mean (CV[%])", "setting": "[3]; SAD Part B, 10 mg fed (n = 7)", "result": "1.377 ^e (26.45) h"},
      {"measurement": "tmax, median", "setting": "[3]; SAD Part B, 10 mg fed (n = 7)", "result": 30, "unit": "min"},
      {"measurement": "AUC0‐inf, mean (CV[%])", "setting": "[3]; [4]", "result": "23.94 ^c (30.64) h•ng mL^−1"},
      {"measurement": "Cmax, mean (CV[%])", "setting": "[3]; [4]", "result": "13.43 (55.44) ng mL^−1"},
      {"measurement": "t1/2, mean (CV[%])", "setting": "[3]; [4]", "result": "1.013 ^c (35.22) h"},
      {"measurement": "tmax, median", "setting": "[3]; [4]", "result": 30, "unit": "min"},
      {"measurement": "AUC0‐inf, mean (CV[%])", "setting": "[3]; [5]", "result": "29.33 (31.92) h•ng mL^−1"},
      {"measurement": "Cmax, mean (CV[%])", "setting": "[3]; [5]", "result": "17.88 (40.87) ng mL^−1"},
      {"measurement": "t1/2, mean (CV[%])", "setting": "[3]; [5]", "result": "0.8765 (17.66) h"},
      {"measurement": "tmax, median", "setting": "[3]; [5]", "result": 60, "unit": "min"},
      {"measurement": "AUC0‐inf, mean (CV[%])", "setting": "[3]; [6]", "result": "22.69 (8.60) h•ng mL^−1"},
      {"measurement": "Cmax, mean (CV[%])", "setting": "[3]; [6]", "result": "8.137 (16.40) ng mL^−1"},
      {"measurement": "t1/2, mean (CV[%])", "setting": "[3]; [6]", "result": "1.505 (7.14) h"},
      {"measurement": "tmax, median", "setting": "[3]; [6]", "result": 15, "unit": "min"},
      {"measurement": "AUC0‐inf, mean (CV[%])", "setting": "[3]; [7]", "result": "72.09 (50.40) h•ng mL^−1"},
      {"measurement": "Cmax, mean (CV[%])", "setting": "[3]; [7]", "result": "49.07 (66.56) ng mL^−1"},
      {"measurement": "t1/2, mean (CV[%])", "setting": "[3]; [7]", "result": "1.477 (14.30) h"},
      {"measurement": "tmax, median", "setting": "[3]; [7]", "result": 15, "unit": "min"},
      {"measurement": "AUC0‐inf, mean (CV[%])", "setting": "[3]; [8]", "result": "84.30 ^d (16.80) h•ng mL^−1"},
      {"measurement": "Cmax, mean (CV[%])", "setting": "[3]; [8]", "result": "33.27 (45.09) ng mL^−1"},
      {"measurement": "t1/2, mean (CV[%])", "setting": "[3]; [8]", "result": "1.669 ^d (7.05) h"},
      {"measurement": "tmax, median", "setting": "[3]; [8]", "result": 30, "unit": "min"}
    ]}
  ]
}
